From ChEMBL document CHEMBL1201862, “PubChem BioAssay data set” (2004)
Where “and” joins values, the source holds several entries; their conditions need not be identical. Identical values can stand only once.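 Cells were grown in 96-well plates and exposed to each compound for 48 hours at five concentrations; endpoints were interpolated linearly between bracketing concentrations, or set to the highest concentration if not reached. GI50: concentration for 50% inhibition of growth.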 Calls of active or inactive are those of the source. No stated cut-off is given here; in the data, active = GI50 up to about 1.1 µM and inactive = higher.

Assays:
Test in all cases: inhibition of tumour cell growth, NCI panel, 48 h
[1] = tested on: UACC-257
[2] = tested on: HOP-62
[3] = tested on: ACHN
[4] = tested on: K562
[5] = tested on: MDA-N
[6] = tested on: NCI/ADR-RES
[7] = tested on: OVCAR-8
[8] = tested on: DU-145
[9] = tested on: NCI-H23
[10] = tested on: SNB-19
[11] = tested on: HOP-92
[12] = tested on: SK-OV-3
[13] = tested on: SW-620
[14] = tested on: UACC-62
[15] = tested on: SNB-75
[16] = tested on: T47D
[17] = tested on: 786-0
[18] = tested on: HCT-15
[19] = tested on: PC-3
[20] = tested on: SF-539

SMILES: CCOC(=O)CCC1(C(=O)O[C@@H]2C[C@H](C)CC[C@H]2C(C)C)CCCCC1=O (stereo not given in full)
- GI50 [1]: 23.3 µM (inactive)
- GI50 [2]: > 100 µM (inactive)
- GI50 [3]: 74.8 µM (inactive)
- GI50 [4]: 28.1 µM (inactive)
- GI50 [5]: 79.4 µM (inactive)
- GI50 [6]: 55.2 µM (inactive)
- GI50 [7]: > 100 µM (inactive)
- GI50 [8]: > 100 µM (inactive)
- GI50 [9]: 74.8 µM (inactive)
- GI50 [10]: > 100 µM (inactive)
- GI50 [11]: 52.4 µM (inactive)
- GI50 [12]: > 100 µM (inactive)
- GI50 [13]: > 100 µM (inactive)
- GI50 [14]: 94.6 µM (inactive)
- GI50 [15]: 42 µM (inactive)
- GI50 [16]: 34.8 µM (inactive)
- GI50 [17]: > 100 µM (inactive)
- GI50 [18]: 41.7 µM
- GI50 [19]: 39.3 µM (inactive)
- GI50 [20]: > 100 µM (inactive)

SMILES: COc1ccccc1NC(=O)CC(=O)n1nc(C)c(/N=N/c2ccccc2Cl)c1C
- GI50 [1]: > 91.4 µM (inactive)
- GI50 [2]: 58.3 µM (inactive)
- GI50 [3]: > 100 µM (inactive)
- GI50 [4]: > 90.2 µM (inactive)
- GI50 [5]: > 31.6 µM (inactive)
- GI50 [6]: > 100 µM (inactive)
- GI50 [7]: > 100 µM (inactive)
- GI50 [8]: > 100 µM (inactive)
- GI50 [9]: > 37.2 µM (inactive)
- GI50 [10]: > 100 µM (inactive)
- GI50 [11]: > 93.8 µM (inactive)
- GI50 [12]: 48.3 µM (inactive)
- GI50 [13]: > 100 µM (inactive)
- GI50 [14]: > 100 µM (inactive)
- GI50 [15]: 25.5 µM (inactive)
- GI50 [16]: > 100 µM (inactive)
- GI50 [17]: > 100 µM (inactive)
- GI50 [18]: > 100 µM
- GI50 [19]: > 100 µM (inactive)
- GI50 [20]: 56.1 µM (inactive)

SMILES: CC(C)=CC1CC(C)C2(CCC3(C)CC4C(C(=O)CC4(C)O)/C(C=O)=C\CC32)O1 (stereo not given)
- GI50 [1]: 0.12 µM (active)
- GI50 [2]: 0.126 µM (active)
- GI50 [3]: 0.0324 µM (active)
- GI50 [4]: 0.0614 µM (active)
- GI50 [5]: 0.112 µM (active)
- GI50 [6]: 0.11 µM (active)
- GI50 [7]: 0.0432 µM (active)
- GI50 [8]: 0.129 µM (active)
- GI50 [9]: 0.0757 µM (active)
- GI50 [10]: 0.177 µM (active)
- GI50 [11]: 0.0703 µM (active)
- GI50 [12]: 0.148 µM (active)
- GI50 [13]: 0.0205 µM (active)
- GI50 [14]: 0.169 µM (active)
- GI50 [15]: 0.142 µM (active)
- GI50 [16]: 0.0574 µM (active)
- GI50 [17]: 0.021 µM (active)
- GI50 [18]: 0.0243 µM
- GI50 [19]: 0.038 µM (active)
- GI50 [20]: 0.0933 µM (active)

SMILES: COC1OC(C(=O)CP(=O)(OC)OC)C(OCc2ccccc2)C(OCc2ccccc2)C1OCc1ccccc1 (stereo not given)
- GI50 [1]: 16.5 µM (inactive) and 15.7 µM (inactive)
- GI50 [2]: 17.2 µM (inactive) and 18 µM (inactive)
- GI50 [3]: 16.4 µM (inactive) and 15.9 µM (inactive)
- GI50 [4]: 31 µM (inactive) and 17.9 µM (inactive)
- GI50 [5]: 16.3 µM (inactive) and 17.1 µM (inactive)
- GI50 [6]: 18.9 µM (inactive) and 16.4 µM (inactive)
- GI50 [7]: 19.8 µM (inactive) and 17.9 µM (inactive)
- GI50 [8]: 17.9 µM (inactive) and 16.5 µM (inactive)
- GI50 [9]: 15.9 µM (inactive) and 17.5 µM (inactive)
- GI50 [10]: 15.9 µM (inactive) and 16.3 µM (inactive)
- GI50 [11]: 17.9 µM (inactive) and 19.1 µM (inactive)
- GI50 [12]: 18.1 µM (inactive) and 17.9 µM (inactive)
- GI50 [13]: 20.7 µM (inactive) and 34.3 µM (inactive)
- GI50 [14]: 13.7 µM (inactive) and 14.8 µM (inactive)
- GI50 [15]: 14.6 µM (inactive) and 16 µM (inactive)
- GI50 [16]: 18 µM (inactive) and 15.5 µM (inactive)
- GI50 [17]: 17.6 µM (inactive) and 17.3 µM (inactive)
- GI50 [18]: 15.5 µM and 17.7 µM
- GI50 [19]: 15.4 µM (inactive) and 14.2 µM (inactive)
- GI50 [20]: 17.3 µM (inactive) and 16.9 µM (inactive)
